In brackets after ≈: the same amount, converted by molar mass. Where two headings read alike, the source gives them in different places.
Key:
Type in all cases: cell-based
Pathogens (169 in total) = assay: Susceptibility testing, all urinary tract infection isolates; details: all 169 isolates
Method: (§1) Minimum inhibitory concentrations (MIC) were determined by reference Clinical and Laboratory Standards Institute (CLSI) broth microdilution methods per M7-A7 [2006]. Quality control ranges utilizing E. coli ATCC 25922, P. aeruginosa ATCC 27853 and S. aureus ATCC 29213, and interpretive criteria for comparator agents were as published in CLSI M100-S17 [2007]. Briefly, serial two-fold dilutions of the test compounds were prepared at 2× concentration in Mueller Hinton Broth. The compound dilutions were mixed in 96-well assay plates in a 1:1 ratio with bacterial inoculum. The inoculum was prepared by suspension of a colony from an agar plate that was prepared the previous day. Bacteria were suspended in sterile saline and added to each assay plate to obtain a final concentration of 5×10^5 CFU/mL. The plates were incubated at 35° C. for 20 hours in ambient air.
In order to determine the activity of representative antibacterial aminoglycoside compounds against bacterial species that commonly cause complicated urinary tract infections worldwide, isolates were collected from 47 medical centers in the U.S. and Europe (10 countries) from urine or blood culture with the source of bacteremia documented as a urinary tract infection. Strains were susceptibility tested against Example 1, gentamicin, amikacin and 10 comparators by CLSI broth microdilution. These MIC assays were conducted following the same protocol as set forth in Example 110. Pathogens (169 in total) included E. coli, Klebsiella spp., Enterobacter spp., Citrobacter spp., P. mirabilis, M. Morganii, P. aeruginosa, S. aureus and S. saprophyticus.

[1] = test system: E. coli AECO040, AAC(6′)-I; assay: MIC, aminoglycoside resistant strain; details: Table 3
Method: as §1
(§2) These MIC assays were conducted following the same protocol as set forth in Example 110. As shown, substituted sisomicin derivatives with groups other than methyl at the 6′-position have improved activity against strains expressing the AAC6′-modifying enzymes.

[2] = test system: S. marcescens ASMA003, ANT(2″) + AAC(6′); assay: MIC, aminoglycoside resistant strain; details: Table 3
Method: as §1, §2

[3] = test system: A. calcoaceticus AACA005, AAC(6′)-I; assay: MIC, aminoglycoside resistant strain; details: Table 3
Method: as §1, §2

[4] = test system: E. coli ATCC 25922 (AECO001); assay: MIC, CLSI broth microdilution; details: for MIC: Escherichia coli; for MIC AECO001: Table 3
Outline: (§3)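 CLSI M7-A7 broth microdilution; 2-fold serial dilutions in Mueller Hinton Broth, 1:1 with inoculum; final 5×10^5 CFU/mL; 35° C., 20 h, ambient air. QC strains E. coli ATCC 25922, P. aeruginosa ATCC 27853, S. aureus ATCC 29213.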

[5] = test system: P. aeruginosa ATCC 27853 (APAE001); assay: MIC, CLSI broth microdilution; details: Pseudomonas aeruginosa
Outline: as §3

[6] = ATCC25922, read-out: MIC AECO001, Table 1, AECO001 is ATCC25922
[7] = ATCC27853, read-out: MIC APAE001, Table 1, APAE001 is ATCC27853
[8] = ATCC25922, Table 2, read-out: MIC E. coli
[9] = Table 1, AECO001 is ATCC25922, read-out: MIC AECO001
[10] = ATCC27853, Table 2, read-out: MIC P. aeruginosa

SMILES	Overall susceptibility rate (Pathogens (169 in total))	MIC AECO040 [1]	MIC ASMA003 [2]	MIC AACA005 [3]	MIC [4, 6]	MIC AECO001 ([4]; ATCC25922)	MIC [5, 7]	MIC [4, 8]	MIC [4, 9]	MIC [5, 10]
NCC[C@H](O)C(=O)N[C@@H]1C[C@H](N)[C@@H](O[C@H]2O[C@H](CN)[C@@H](O)[C@H](O)[C@H]2O)[C@H](O)[C@H]1O[C@H]1O[C@H](CO)[C@@H](O)[C@H](N)[C@H]1O [Amikacin, amikacin, reference compound]	94.1%	–	–	–	–	–	–	–	–	–
CN[C@@H]1[C@@H](O)[C@@H](O[C@@H]2[C@@H](O)[C@H](O[C@H]3OC(CNCC4CCNCC4)=CC[C@H]3N)[C@@H](N)C[C@H]2NC(=O)[C@@H](O)CCN)OC[C@]1(C)O [Example 12, 6′-(Methyl-piperidin-4-yl)-1-(4-amino-2(S)-hydroxy-butyryl)-sisomicin]	–	0.5 µg/mL (≈ 0.774 µM)	4 µg/mL (≈ 6.19 µM)	2 µg/mL (≈ 3.1 µM)	1 to 16 µg/mL (≈ 1.55 to 24.8 µM)	1 µg/mL (≈ 1.55 µM)	1 to 16 µg/mL (≈ 1.55 to 24.8 µM)	–	–	–
CN[C@@H]1[C@@H](O)[C@@H](O[C@@H]2[C@@H](O)[C@H](O[C@H]3OC(CNCC4CC4)=CC[C@H]3N)[C@@H](N)C[C@H]2NC(=O)[C@@H](O)CN)OC[C@]1(C)O [Example 13, 6′-(Methyl-cyclopropyl)-1-(3-amino-2(S)-hydroxy-propionyl)-sisomicin]	–	0.125 µg/mL (≈ 0.212 µM)	2 µg/mL (≈ 3.4 µM)	2 µg/mL (≈ 3.4 µM)	1 to 16 µg/mL (≈ 1.7 to 27.2 µM)	1 µg/mL (≈ 1.7 µM)	> 16 µg/mL	–	–	–
CN[C@@H]1[C@@H](O)[C@@H](O[C@@H]2[C@@H](O)[C@H](O[C@H]3OC(CNCCO)=CC[C@H]3N)[C@@H](N)C[C@H]2NC(=O)[C@@H](O)CN)OC[C@]1(C)O [Example 16, 6′-(2-Hydroxy-ethyl)-1-(3-amino-2(S)-hydroxy-propionyl)-sisomicin]	–	1 µg/mL (≈ 1.73 µM)	2 µg/mL (≈ 3.46 µM)	2 µg/mL (≈ 3.46 µM)	–	1 µg/mL (≈ 1.73 µM)	–	< 1 µg/mL	< 1 µg/mL	1 to 16 µg/mL (≈ 1.73 to 27.6 µM)
CN[C@@H]1[C@@H](O)[C@@H](O[C@@H]2[C@@H](O)[C@H](O[C@H]3OC(CNCCCN)=CC[C@H]3N)[C@@H](N)C[C@H]2NC(=O)[C@@H](O)CN)OC[C@]1(C)O [Example 17, 6′-(3-Amino-propyl)-1-(3-amino-2(S)-hydroxy-propionyl)-sisomicin]	–	0.5 µg/mL (≈ 0.845 µM)	2 µg/mL (≈ 3.38 µM)	2 µg/mL (≈ 3.38 µM)	–	1 µg/mL (≈ 1.69 µM)	–	< 1 µg/mL	< 1 µg/mL	1 to 16 µg/mL (≈ 1.69 to 27 µM)
CN[C@@H]1[C@@H](O)[C@@H](O[C@@H]2[C@@H](O)[C@H](O[C@H]3OC(CNCC4CC4)=CC[C@H]3N)[C@@H](N)C[C@H]2NC(=O)[C@@H](O)CCN)OC[C@]1(C)O [Example 18, 6′-(Methyl-cyclopropyl)-1-(4-amino-2(S)-hydroxy-butyryl)-sisomicin]	–	0.25 µg/mL (≈ 0.415 µM)	4 µg/mL (≈ 6.64 µM)	2 µg/mL (≈ 3.32 µM)	< 1 µg/mL	1 µg/mL (≈ 1.66 µM)	1 to 16 µg/mL (≈ 1.66 to 26.5 µM)	–	–	–
CN[C@@H]1[C@@H](O)[C@@H](O[C@@H]2[C@@H](O)[C@H](O[C@H]3OC(CNCCCN)=CC[C@H]3N)[C@@H](N)C[C@H]2NC(=O)[C@@H](O)CCN)OC[C@]1(C)O [Example 48, 6′-(3-Amino-propyl)-1-(4-amino-2(S)-hydroxy-butyryl)-sisomicin]	–	0.5 µg/mL (≈ 0.825 µM)	2 µg/mL (≈ 3.3 µM)	2 µg/mL (≈ 3.3 µM)	< 1 µg/mL	1 µg/mL (≈ 1.65 µM)	1 to 16 µg/mL (≈ 1.65 to 26.4 µM)	–	–	–
CNCC1=CC[C@@H](N)[C@@H](O[C@H]2[C@H](O)[C@@H](O[C@H]3OC[C@](C)(O)[C@H](NC)[C@H]3O)[C@H](NC(=O)C3(O)CNC3)C[C@@H]2N)O1 [Example 61]	–	16 µg/mL (≈ 28.5 µM)	4 µg/mL (≈ 7.13 µM)	2 µg/mL (≈ 3.57 µM)	< 1 µg/mL	1 µg/mL (≈ 1.78 µM)	1 to 16 µg/mL (≈ 1.78 to 28.5 µM)	–	–	–
CNCC1=CC[C@@H](N)[C@@H](O[C@H]2C(O)[C@@H](O[C@H]3OC[C@](C)(O)[C@H](NC)[C@H]3O)[C@H](N)C[C@@H]2N)O1 (some centres unmarked) [Mono-substituted Compound 1, reference compound]	–	> 64 µg/mL	1 µg/mL (≈ 2.17 µM)	2 µg/mL (≈ 4.33 µM)	–	1 µg/mL (≈ 2.17 µM)	–	–	–	–
CN[C@@H]1[C@@H](O)[C@@H](O[C@@H]2C(O)[C@H](O[C@H]3OC(CNCC4CC4)=CC[C@H]3N)[C@@H](N)C[C@H]2N)OC[C@]1(C)O (some centres unmarked) [Mono-substituted Compound 2, reference compound]	–	1 µg/mL (≈ 1.99 µM)	0.5 µg/mL (≈ 0.997 µM)	4 µg/mL (≈ 7.97 µM)	–	1 µg/mL (≈ 1.99 µM)	–	–	–	–
CN[C@@H]1[C@@H](O)[C@@H](O[C@@H]2C(O)[C@H](O[C@H]3OC(CNCC4CCNCC4)=CC[C@H]3N)[C@@H](N)C[C@H]2N)OC[C@]1(C)O (some centres unmarked) [Mono-substituted Compound 3, reference compound]	–	0.25 µg/mL (≈ 0.459 µM)	1 µg/mL (≈ 1.84 µM)	0.5 µg/mL (≈ 0.918 µM)	–	0.5 µg/mL (≈ 0.918 µM)	–	–	–	–
CN[C@@H]1[C@@H](O)[C@@H](O[C@@H]2C(O)[C@H](O[C@H]3OC(CNCCCN)=CC[C@H]3N)[C@@H](N)C[C@H]2N)OC[C@]1(C)O (some centres unmarked) [Mono-substituted Compound 4, reference compound]	–	16 µg/mL (≈ 31.7 µM)	1 µg/mL (≈ 1.98 µM)	1 µg/mL (≈ 1.98 µM)	–	2 µg/mL (≈ 3.96 µM)	–	–	–	–
CN[C@@H]1C(O)[C@@H](O[C@@H]2[C@@H](O)[C@H](OC3OC(CN)=CC[C@H]3N)[C@@H](N)C[C@H]2NC(=O)[C@@H](O)CN)OC[C@]1(C)O (some centres unmarked) [Mono-substituted Compound 5, reference compound]	–	8 µg/mL (≈ 15 µM)	2 µg/mL (≈ 3.74 µM)	32 µg/mL (≈ 59.9 µM)	–	0.5 µg/mL (≈ 0.935 µM)	–	–	–	–
CN[C@@H]1C(O)[C@@H](O[C@@H]2[C@@H](O)[C@H](OC3OC(CN)=CC[C@H]3N)[C@@H](N)C[C@H]2NC(=O)[C@@H](O)CCN)OC[C@]1(C)O (some centres unmarked) [Mono-substituted Compound 6, reference compound]	–	4 µg/mL (≈ 7.29 µM)	4 µg/mL (≈ 7.29 µM)	16 µg/mL (≈ 29.2 µM)	–	0.5 µg/mL (≈ 0.911 µM)	–	–	–	–
CN[C@@H]1C(O)[C@@H](O[C@@H]2[C@@H](O)[C@H](OC3OC(CN)=CC[C@H]3N)[C@@H](N)C[C@H]2NC(=O)C2(O)CNC2)OC[C@]1(C)O (some centres unmarked) [Mono-substituted Compound 7, reference compound]	–	4 µg/mL (≈ 7.32 µM)	16 µg/mL (≈ 29.3 µM)	32 µg/mL (≈ 58.5 µM)	–	1 µg/mL (≈ 1.83 µM)	–	–	–	–
CN[C@@H]1[C@@H](O)[C@@H](O[C@@H]2[C@@H](O)[C@H](O[C@H]3OC(CN)=CC[C@H]3N)[C@@H](N)C[C@H]2N)OC[C@]1(C)O [Sisomicin, reference compound]	–	32 µg/mL (≈ 71.5 µM)	8 µg/mL (≈ 17.9 µM)	32 µg/mL (≈ 71.5 µM)	–	0.5 µg/mL (≈ 1.12 µM)	–	–	–	–

— patent publication US20120214760A1, “TREATMENT OF URINARY TRACT INFECTIONS WITH ANTIBACTERIAL AMINOGLYCOSIDE COMPOUNDS” (Achaogen, Inc., priority 2009, published 2012)
